According to ChEMBL document CHEMBL3994626 (Bioorg Med Chem Lett, 2017):
Each block holds one compound with its values, some of them ahead of it.

Legend:
[1] = Stability in mouse liver microsomes assessed as parent compound remaining at 0.5 uM after 10 mins by high throughput assay; assay type: ADME, microsome; settings: read-out: Stability
[2] = Cmax in BALB/c mouse up to 300 mg/kg, qd measured on day 4; assay type: ADME, organism-based; set-up: dose 300 mg/kg; settings: in vivo
[3] = Drug uptake in Balb/c mouse KLH model at 15 mg/kg, po after 24 hrs; assay type: ADME, organism-based; settings: in vivo, read-out: Drug uptake
[4] = Drug uptake in Balb/c mouse KLH model at 0.6 mg/kg, po after 24 hrs; assay type: ADME, organism-based; settings: in vivo, read-out: Drug uptake
[5] = Drug uptake in Balb/c mouse KLH model at 3 mg/kg, po after 7 hrs; assay type: ADME, organism-based; settings: in vivo, read-out: Drug uptake
[6] = Drug uptake in KLH Balb/c mouse model at 0.6 mg/kg, po after 7 hrs; assay type: ADME, organism-based; settings: in vivo, read-out: Drug uptake
[7] = AUC in BALB/c mouse up to 300 mg/kg, qd measured on day 4; assay type: ADME, organism-based; settings: in vivo
[8] = Drug uptake in Balb/c mouse KLH model at 15 mg/kg, po after 7 hrs; assay type: ADME, organism-based; settings: in vivo, read-out: Drug uptake
[9] = Drug uptake in Balb/c mouse KLH model at 3 mg/kg, po after 24 hrs; assay type: ADME, organism-based; settings: in vivo, read-out: Drug uptake

- remaining at 10 min, 0.5 µM [1]: 35%
Compound: CC(=O)N1C[C@@H](C)N(c2cc(F)cc(-c3cc(-c4ccnn4C4CCOCC4)c4c(N)ncnn34)c2)[C@@H](C)C1

- remaining at 10 min, 0.5 µM [1]: 48%
Compound: CC(=O)N1C[C@@H](C)N(c2cncc(-c3cc(-c4ccnn4C4CCOCC4)c4c(N)ncnn34)c2)[C@@H](C)C1

- remaining at 10 min, 0.5 µM [1]: 14%
Compound: COc1cc(-c2cc(-c3ccnn3C3CCOCC3)c3c(N)ncnn23)cc(N2[C@H](C)CN(C(C)=O)C[C@@H]2C)c1

- Cmax [2]: ≤ 55000 nM
- concentration at 24 h [3]: < 7 nM
- concentration at 24 h [4]: < 5.6 nM
- concentration at 7 h [5]: 24.9 nM
- remaining at 10 min, 0.5 µM [1]: 54%
- concentration at 7 h [6]: < 6.4 nM
- AUC [7]: ≤ 520 µM·h
- concentration at 7 h [8]: 97.8 nM
- concentration at 24 h [9]: < 3.9 nM
Compound: CC(=O)N1C[C@@H](C)N(c2cccc(-c3cc(-c4ccnn4C4CCOCC4)c4c(N)ncnn34)c2)[C@@H](C)C1
